Laboratory results: article PMC8480759, “Inhibitors of histone deacetylase 6 based on a novel 3-hydroxy-isoxazole zinc binding group” (Journal of Enzyme Inhibition and Medicinal Chemistry, 2021)
pIC50: −log10 of the molar value.

How the values were obtained:
[1] = test system: acetylation levels of α-tubulin (HDAC6 target) in DU145 cells; test: Western blot of α-tubulin acetylation in DU145 cells; format: cell-based, human; settings: 24 h, 10 µM
Experimental: The results corroborate the inhibitory activity of 17, 23, 25 and 27 at concentrations lower than 10 µM. […] HDACs contribution to CRPC is known[20] and the possibility to arrest CRPC proliferation by acting on HDAC targets is expanding in the scientific literature[21]^,[22]. After administration of the selected compounds for 24 h at 10 µM concentration, the effect on the acetylation levels of histone H3 and α-tubulin (respectively, HDAC1 and HDAC6 targets) was investigated. […] Lastly, in the same cell line, the anti-proliferative effect was measured in dose and time dependent manner (Figure S4).
Figure S3. Western blotting analysis of the tested and reference compounds SAHA and Tubastatin A on acetylation levels of histone H3 and α-tubulin in DU145 cells. GAPDH and H4 were used as a loading control. Densitometric values were analyzed using ImageJ Software and are reported on the top of bands as the ratio between loading control and acetylated target. […]
The resulting mixtures were incubated at 37 °C for 45min , after which 25 µL of 2X HDAC developer were added. Following incubation at RT for 15 min, fluorescence intensity was measured using a microplate reader (GloMax Discover System, Promega) at 365nm excitation and […] emission wavelengths.
IC50 values were calculated using the GraphPad Prism 6 program based on a log(inhibitor) vs response (variable slope) sigmoidal equation. […]

[2] = biological target: T1, HDAC6 (Homo sapiens, UniProt Q9UBN7); test: In vitro HDAC6 fluorogenic enzymatic assay; format: biochemical; design: purchased BPS Bioscience #50076 (Fluorogenic Assay Kit); settings: recombinant human HDAC6; dose-response 300 µM to 135 nM
T1 sequence (Q9UBN7 1-1215): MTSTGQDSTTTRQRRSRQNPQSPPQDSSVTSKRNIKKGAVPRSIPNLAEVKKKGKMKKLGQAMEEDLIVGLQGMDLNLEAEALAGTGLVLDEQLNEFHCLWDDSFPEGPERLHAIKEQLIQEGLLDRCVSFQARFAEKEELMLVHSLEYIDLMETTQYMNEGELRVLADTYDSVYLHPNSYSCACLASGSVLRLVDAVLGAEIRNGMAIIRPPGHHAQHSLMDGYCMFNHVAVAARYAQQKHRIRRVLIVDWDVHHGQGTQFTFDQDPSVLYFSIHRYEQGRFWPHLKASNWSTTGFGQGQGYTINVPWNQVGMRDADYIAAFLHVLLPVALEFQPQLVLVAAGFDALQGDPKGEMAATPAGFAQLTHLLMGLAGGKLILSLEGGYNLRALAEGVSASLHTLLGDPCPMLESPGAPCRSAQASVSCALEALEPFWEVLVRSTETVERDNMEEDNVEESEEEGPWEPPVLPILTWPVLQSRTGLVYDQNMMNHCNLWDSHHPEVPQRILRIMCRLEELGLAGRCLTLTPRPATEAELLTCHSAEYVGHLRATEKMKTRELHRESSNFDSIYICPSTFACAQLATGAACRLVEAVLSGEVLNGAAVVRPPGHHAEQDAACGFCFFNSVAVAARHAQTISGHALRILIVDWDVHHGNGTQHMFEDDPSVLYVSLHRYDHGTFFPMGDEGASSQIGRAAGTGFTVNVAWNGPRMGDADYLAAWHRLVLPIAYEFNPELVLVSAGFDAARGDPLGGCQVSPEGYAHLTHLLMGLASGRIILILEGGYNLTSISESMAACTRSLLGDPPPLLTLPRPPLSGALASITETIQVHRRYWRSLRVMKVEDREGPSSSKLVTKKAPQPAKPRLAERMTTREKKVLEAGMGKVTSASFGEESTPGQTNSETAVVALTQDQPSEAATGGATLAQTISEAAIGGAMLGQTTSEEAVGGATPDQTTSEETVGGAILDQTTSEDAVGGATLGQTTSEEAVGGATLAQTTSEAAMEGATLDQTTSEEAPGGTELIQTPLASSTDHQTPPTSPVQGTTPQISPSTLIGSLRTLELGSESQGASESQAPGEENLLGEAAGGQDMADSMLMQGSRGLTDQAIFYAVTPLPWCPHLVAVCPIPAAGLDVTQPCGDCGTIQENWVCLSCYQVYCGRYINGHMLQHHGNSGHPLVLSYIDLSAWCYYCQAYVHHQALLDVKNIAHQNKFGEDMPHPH

[3] = biological target: T1, HDAC6; test: HDAC6 assay with acetylated p53 peptide (residues 379–382, RHKKAc-AMC) as substrate; format: biochemical

Row | pIC50 [2] | concentration showing inhibitory activity on HDAC6 [3] | Structure (SMILES) | effect on acetylation of α-tubulin [1]
1 | 5.82 | below 10 µM | Oc1cc(-c2ccc3c(c2)OCO3)on1 [Compound 25] | increased
2 | 6.15 | below 10 µM | Oc1cc(-c2ccc(NCc3ccccc3)cc2)on1 [Compound 23] | increased
